The numbers were not newly measured in patent US20190000808A1, “COMPOSITION AND METHODS FOR THE TREATMENT OF BLEPHOPHAROPTOSIS” (Allergan, Inc., priority 2015, published 2019), which cites them from elsewhere.

For data set [1], the system named is accommodation of the eye.
Data set [2] has as its system alpha-1 adrenergic receptors on Muller's muscle. The following applies: single drop, typically 2.5%; temporary reversal of ptosis.

`CC[C@@H]1C(=O)OC[C@@H]1Cc1cncn1C` [Pilocarpine, (3S,4R)-3-Ethyl-4((1-methyl-1H-imidazol-5-yl)methyl)dihydrofuran-2(3H)-one]: the tolerability entry in data set [1] (topical concentrations above 0.5%, side effects red eyes, ocular pain, brow ache, headache) was “not tolerated”. Moreover, the “effect on accommodation of the eye” value in data set [1] (topical concentrations below 0.5%) is on record as “minimal effect”.
On to `CNC[C@H](O)c1cccc(O)c1` [phenylephrine], for which the eyelid elevation entry in data set [2] is “causes eyelid elevation”.
